Measurements published in ChEMBL document CHEMBL1147879, “Synthesis of soluble multivalent glycoconjugates that target the Hc region of botulinum neurotoxin A” (Bioorg Med Chem Lett, 2007).
The source made the active and inactive calls. The rule behind the calls is not given here.

Biological target: Synaptosomal-associated protein 25 (Rattus norvegicus) (UniProt P60881)
Assay: Inhibition of BoNT/A-mediated SNAP25 cleavage in rat spinal card cells after 24 hrs by Western blot analysis
Type: cell-based

Chain of Synaptosomal-associated protein 25 (Rattus norvegicus) (P60881 whole entry, looked up): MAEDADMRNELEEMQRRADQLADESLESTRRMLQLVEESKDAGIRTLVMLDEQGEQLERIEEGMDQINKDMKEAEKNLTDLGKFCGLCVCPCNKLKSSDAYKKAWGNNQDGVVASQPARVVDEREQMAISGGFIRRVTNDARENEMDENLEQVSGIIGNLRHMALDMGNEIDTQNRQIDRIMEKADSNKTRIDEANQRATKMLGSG

CC(=O)N[C@@H]1[C@@H]([C@@H](C)C(O)CCO)O[C@](SCC(=O)NCCOCCOCCOCCn2cc(CNC(=O)c3cc(NC(=O)CN)cc(C(=O)NCc4cn(CCOCCOCCOCCNC(=O)CS[C@]5(C(=O)O)C[C@H](O)[C@@H](NC(C)=O)[C@H]([C@H](C)C(O)CCO)O5)nn4)c3)nn2)(C(=O)O)C[C@H]1O (some centres not stated)
Activity: Active

CC(=O)N[C@@H]1[C@@H]([C@@H](C)C(O)CCO)O[C@](SCC(=O)NCCOCCOCCOCCn2cc(CNC(=O)c3cc(NC(=O)CNC(=O)c4cc(NC(=O)CN)cc(C(=O)NCC(=N)Nc5cc(C(=O)NCc6cn(CCOCCOCCOCCNC(=O)CS[C@@]7(C(=O)O)C[C@@H](O)[C@H](NC(C)=O)[C@@H]([C@@H](C)C(O)CCO)O7)nn6)cc(C(=O)NCc6cn(CCOCCOCCOCCNC(=O)CS[C@@]7(C(=O)O)C[C@@H](O)[C@H](NC(C)=O)[C@@H]([C@@H](C)C(O)CCO)O7)nn6)c5)c4)cc(C(=O)NCc4cn(CCOCCOCCOCCNC(=O)CS[C@]5(C(=O)O)C[C@H](O)[C@@H](NC(C)=O)[C@H]([C@H](C)C(O)CCO)O5)nn4)c3)nn2)(C(=O)O)C[C@H]1O (some centres not stated)
Activity: Active
